# Measurements as given in patent US10448639B2, “Fungicidal pyrazoles” (FMC CORPORATION, priority 2009, dated 2019).
# Read-outs that look alike come from different tables or passages of the source. Marks after values point to notes of the source that are not given here.
# What was measured:
# [1] = test system: Septoria nodorum; assay: Test F: Septoria glume blotch, preventive spray on wheat seedlings, visual disease rating; details: for pest or weed control at 200 µg/mL: Parastagonospora nodorum, in Triticum aestivum, 192 h; for Test F rating (% disease control) / Test F disease control rating: 100 = 100% disease control; for Test F disease control rating: 0 = no disease control relative to controls
# [2] = test system: Puccinia recondita f. sp. tritici; assay: Test H: wheat leaf rust, curative spray on inoculated wheat seedlings, visual disease rating; details: for pest or weed control at 200 µg/mL: 144 h; for Test H rating (% disease control) / Test H disease control rating: 100 = 100% disease control; for Test H rating (% disease control): 0 = no control relative to controls; for Test H disease control rating: sprayed after inoculation, 0 = no disease control relative to controls
# [3] = test system: Erysiphe graminis f sp. tritici; assay: Test J: wheat powdery mildew, preventive spray on wheat seedlings, visual disease rating; details: for pest or weed control at 200 µg/mL: Blumeria graminis, in Triticum aestivum, 192 h; for Test J rating (% disease control) / Test J disease control rating: 100 = 100% disease control; for Test J disease control rating: sprayed the day before inoculation, 0 = no disease control relative to controls
# [4] = test system: Alternaria solani; assay: Test C: tomato early blight, preventive spray on tomato seedlings, visual disease rating; details: for pest or weed control at 200 µg/mL: Alternaria solani, in Solanum lycopersicum, 168 h; for Test C rating (% disease control) / Test C disease control rating: 100 = 100% disease control; for Test C disease control rating: 0 = no disease control relative to controls
# Excerpt: (§1) General protocol for preparing test suspensions for Tests A-J: the test compounds were first dissolved in acetone in an amount equal to 3% of the final volume and then suspended at the desired concentration (in ppm) in acetone and purified water (50/50 mix by volume) containing 250 ppm of the surfactant Trem® 014 (polyhydric alcohol esters). The resulting test suspensions were then used in Tests A-J. Spraying a 200 ppm test suspension to the point of run-off on the test plants was the equivalent of a rate of 500 g/ha. Unless otherwise indicated, the rating values indicate a 200 ppm test suspension was used. (An asterisk “*” next to the rating value indicates a 40 ppm test suspension was used.)
# The test suspension was sprayed to the point of run-off on tomato seedlings. The following day the seedlings were inoculated with a spore suspension of Alternaria solani (the causal agent of tomato early blight) and incubated in a saturated atmosphere at 27° C. for 48 h, and then moved to a growth chamber at 20° C. for 5 days, after which time visual disease ratings were made.
# [5] = test system: Puccinia recondita f. sp. tritici; assay: Test I: wheat leaf rust, preventive spray on wheat seedlings, visual disease rating; details: for pest or weed control at 200 µg/mL: 192 h; for Test I rating (% disease control) / Test I disease control rating: 100 = 100% disease control; for Test I disease control rating: sprayed the day before inoculation, 0 = no disease control relative to controls
# [6] = test system: Botrytis cinerea; assay: Test B: tomato Botrytis, preventive spray on tomato seedlings, visual disease rating; details: for pest or weed control at 200 µg/mL: Botrytis cinerea, in Solanum lycopersicum, 120 h; for Test B rating (% disease control) / Test B disease control rating: 100 = 100% disease control; for Test B disease control rating: 0 = no disease control relative to controls
# [7] = test system: Septoria tritici; assay: Test G: wheat leaf blotch, preventive spray on wheat seedlings, visual disease rating; details: wheat leaf blotch, 100 = 100% disease control
# Excerpt: as §1
# The test suspension was sprayed to the point of run-off on wheat seedlings. The following day the seedlings were inoculated with a spore suspension of Septoria tritici (the causal agent of wheat leaf blotch) and incubated in saturated atmosphere at 24° C. for 48 h. and then the seedlings were moved to a growth chamber at 20° C. for 19 additional days, after which time visual disease ratings were made.
# [8] = Septoria glume blotch, 0 = no control relative to controls
# [9] = wheat powdery mildew, 0 = no control relative to controls
# [10] = tomato early blight, 0 = no control relative to controls
# [11] = wheat leaf rust, preventive, 0 = no control relative to controls
# [12] = tomato Botrytis, 0 = no control relative to controls
# [13] = read-out: Test F disease control rating
# [14] = read-out: Test H disease control rating
# [15] = read-out: Test J disease control rating
# [16] = read-out: Test C disease control rating
# [17] = read-out: Test I disease control rating
# [18] = read-out: Test B disease control rating
# [19] = Septoria glume blotch on wheat, preventive spray, 0 = no control
# [20] = wheat powdery mildew, preventive spray, 0 = no control
# [21] = tomato early blight, preventive spray, 0 = no control
# [22] = preventive spray, 0 = no control
# [23] = wheat leaf rust, preventive spray, 0 = no control
# [24] = tomato Botrytis, preventive spray, 0 = no control
compound,measurement,setting,value
"Cc1nn(C)c(Oc2ccc(C#N)cc2F)c1-c1ccc(F)cc1Br [Compound 284, 4-[[4-(2-bromo-4-fluorophenyl)-1,3-dimethyl-1H-pyrazol-5-yl]oxy]-3-fluorobenzonitrile]",pest or weed control at 200 µg/mL,[1]; read-out: Test F rating (% disease control),100%
same,pest or weed control at 200 µg/mL,[2]; read-out: Test H rating (% disease control),28%
same,pest or weed control at 200 µg/mL,[3]; read-out: Test J rating (% disease control),100%
same,pest or weed control at 200 µg/mL,[4]; read-out: Test C rating (% disease control),99%
same,pest or weed control at 200 µg/mL,[5]; read-out: Test I rating (% disease control),100%
same,pest or weed control at 200 µg/mL,[6]; read-out: Test B rating (% disease control),99%
Cc1nn(C)c(Nc2ccc(Cl)cc2Cl)c1-c1c(F)cccc1Cl [compound 283],Test F rating (% disease control),[1]; [8],0%
same,Test H rating (% disease control),"[2]; wheat leaf rust, curative",9%
same,Test J rating (% disease control),[3]; [9],100%
same,Test C rating (% disease control),[4]; [10],65%
same,Test I rating (% disease control),[5]; [11],99%
same,Test B rating (% disease control),[6]; [12],99%
Cc1nn(C)c(Oc2ccc(C#N)cc2Cl)c1-c1ccc(F)cc1Br [compound 285],Test F rating (% disease control),[1]; [8],60%
same,Test H rating (% disease control),"[2]; wheat leaf rust, curative",9%
same,Test J rating (% disease control),[3]; [9],99%
same,Test C rating (% disease control),[4]; [10],0%
same,Test I rating (% disease control),[5]; [11],99%
same,Test B rating (% disease control),[6]; [12],98%
COc1cccc(Nc2c(-c3ccc(F)cc3F)c(C)nn2C)c1Cl [compound 281],Test F rating (% disease control),[1]; [8],0%
same,Test H rating (% disease control),"[2]; wheat leaf rust, curative",0%
same,Test J rating (% disease control),[3]; [9],98%
same,Test C rating (% disease control),[4]; [10],44%
same,Test I rating (% disease control),[5]; [11],94%
same,Test B rating (% disease control),[6]; [12],98%
Cc1nn(C)c(C(O)c2c(F)ccc(F)c2F)c1-c1ccc(F)cc1Cl (racemic) [compound 356],Test F disease control rating,[1]; Septoria glume blotch on wheat,0%
same,Test H disease control rating,[2]; wheat leaf rust,100%
same,Test J disease control rating,[3]; wheat powdery mildew,0%
same,Test C disease control rating,[4]; tomato early blight,0%
same,Test I disease control rating,[5]; wheat leaf rust,100%
same,Test B disease control rating,[6]; tomato Botrytis,100%
COc1ccc(-c2c(C)nn(C)c2Nc2ccc(Cl)cc2Cl)c(Cl)c1 [compound 282],Test F rating (% disease control),[1]; [8],0%
same,Test H rating (% disease control),"[2]; wheat leaf rust, curative",0%
same,Test J rating (% disease control),[3]; [9],100%
same,Test C rating (% disease control),[4]; [10],98%
same,Test I rating (% disease control),[5]; [11],99%
same,Test B rating (% disease control),[6]; [12],99%
"Cc1nn(C)c(Nc2c(Cl)cc(F)cc2Cl)c1-c1ccc(F)cc1Cl [Compound 369, 4-(2-chloro-4-fluorophenyl)-N-(2,6-dichloro-4-fluorophenyl)-1,3-dimethyl-1H-pyrazol-5-amine]",pest or weed control at 200 µg/mL,[1]; [13],0%
same,pest or weed control at 200 µg/mL,[2]; [14],17%
same,pest or weed control at 200 µg/mL,[3]; [15],99%
same,pest or weed control at 200 µg/mL,[4]; [16],66%
same,pest or weed control at 200 µg/mL,[5]; [17],100%
same,pest or weed control at 200 µg/mL,[6]; [18],100%
Cc1nn(C)c(Nc2ccc(Cl)c(F)c2)c1-c1c(F)cc(C#N)cc1F [compound 125],Test F rating (% disease control),[1]; [19],60%
same,Test J rating (% disease control),[3]; [20],0%
same,Test C rating (% disease control),[4]; [21],67%
same,Test G rating (% disease control),[7]; [22],99%
same,Test I rating (% disease control),[5]; [23],92%
same,Test B rating (% disease control),[6]; [24],100%
Cc1nn(C)c(Nc2ccc(Cl)c(Cl)c2)c1-c1c(F)cc(C#N)cc1F [compound 123],Test F rating (% disease control),[1]; [19],40%
same,Test J rating (% disease control),[3]; [20],0%
same,Test C rating (% disease control),[4]; [21],0%
same,Test G rating (% disease control),[7]; [22],99%
same,Test I rating (% disease control),[5]; [23],80%
same,Test B rating (% disease control),[6]; [24],99%
Cc1ccc(Nc2c(-c3c(F)cc(C#N)cc3F)c(C)nn2C)cc1 [compound 124],Test F rating (% disease control),[1]; [19],60%
same,Test J rating (% disease control),[3]; [20],94%
same,Test C rating (% disease control),[4]; [21],78%
same,Test G rating (% disease control),[7]; [22],99%
same,Test I rating (% disease control),[5]; [23],96%
same,Test B rating (% disease control),[6]; [24],100%
"Cc1nn(C)c(Nc2c(F)cc(Cl)cc2Cl)c1-c1ccc(F)cc1Cl [Compound 367, 4-(2-chloro-4-fluorophenyl)-N-(2,4-dichloro-6-fluorophenyl)-1,3-dimethyl-1H-pyrazol-5-amine]",pest or weed control at 200 µg/mL,[1]; [13],100%
same,pest or weed control at 200 µg/mL,[2]; [14],100%
same,pest or weed control at 200 µg/mL,[3]; [15],100%
same,pest or weed control at 200 µg/mL,[4]; [16],100%
same,pest or weed control at 200 µg/mL,[5]; [17],100%
same,pest or weed control at 200 µg/mL,[6]; [18],100%
Cc1nn(C)c(Nc2ccc(Cl)c(F)c2)c1-c1c(F)cc(F)cc1F [compound 14],Test F rating (% disease control),[1]; [19],0%
same,Test J rating (% disease control),[3]; [20],98%
same,Test C rating (% disease control),[4]; [21],0%
same,Test G rating (% disease control),[7]; [22],99%
same,Test I rating (% disease control),[5]; [23],99%
same,Test B rating (% disease control),[6]; [24],98%
Cc1nn(C)c(C(O)c2ccc(F)cc2)c1-c1ccc(F)cc1Cl (racemic) [compound 350],Test F disease control rating,[1]; Septoria glume blotch on wheat,0%
same,Test H disease control rating,[2]; wheat leaf rust,9%
same,Test J disease control rating,[3]; wheat powdery mildew,0%
same,Test C disease control rating,[4]; tomato early blight,9%
same,Test I disease control rating,[5]; wheat leaf rust,96%
same,Test B disease control rating,[6]; tomato Botrytis,99%
Cc1nn(C)c(Nc2c(Cl)cc(Br)cc2Cl)c1-c1ccc(F)cc1Cl [compound 403],Test F disease control rating,[1]; Septoria glume blotch on wheat,0%
same,Test H disease control rating,[2]; wheat leaf rust,99%
same,Test J disease control rating,[3]; wheat powdery mildew,99%
same,Test C disease control rating,[4]; tomato early blight,0%
same,Test I disease control rating,[5]; wheat leaf rust,100%
same,Test B disease control rating,[6]; tomato Botrytis,99%
Cc1nn(C)c(Nc2ccc(Cl)cc2Cl)c1-c1ccc(F)cc1Cl [compound 299],Test F rating (% disease control),[1]; [8],51%
same,Test H rating (% disease control),"[2]; wheat leaf rust, curative",41%
same,Test J rating (% disease control),[3]; [9],100%
same,Test C rating (% disease control),[4]; [10],95%
same,Test I rating (% disease control),[5]; [11],100%
same,Test B rating (% disease control),[6]; [12],100%
COc1ccc(-c2c(C)nn(C)c2Oc2ccc(Cl)cc2)c(F)c1 [compound 15],Test F rating (% disease control),[1]; [19],73%
same,Test J rating (% disease control),[3]; [20],99%
same,Test C rating (% disease control),[4]; [21],67%
same,Test G rating (% disease control),[7]; [22],99%
same,Test I rating (% disease control),[5]; [23],98%
same,Test B rating (% disease control),[6]; [24],99%
COc1ccc(Oc2c(-c3ccc(F)cc3Cl)c(C)nn2C)c(F)c1 [compound 21],Test F rating (% disease control),[1]; [19],97%
same,Test J rating (% disease control),[3]; [20],99%
same,Test C rating (% disease control),[4]; [21],100%
same,Test I rating (% disease control),[5]; [23],100%
same,Test B rating (% disease control),[6]; [24],98%
"Cc1nn(C)c(Nc2c(F)cc(Cl)cc2F)c1-c1ccc(F)cc1Cl [Compound 286, N-(4-chloro-2,6-difluorophenyl)-4-(2-chloro-4-fluorophenyl)-1,3-dimethyl-1H-pyrazole-5-amine]","Test F rating (% disease control), marked *","[1]; Septoria glume blotch, rating marked with asterisk (*), meaning not given",60* %
same,"Test H rating (% disease control), marked *","[2]; wheat leaf rust, curative, rating marked with asterisk (*), meaning not given",100* %
same,"Test J rating (% disease control), marked *","[3]; wheat powdery mildew, rating marked with asterisk (*), meaning not given",100* %
same,"Test C rating (% disease control), marked *","[4]; tomato early blight, rating marked with asterisk (*), meaning not given",85* %
same,"Test I rating (% disease control), marked *","[5]; wheat leaf rust, preventive, rating marked with asterisk (*), meaning not given",100* %
same,"Test B rating (% disease control), marked *","[6]; tomato Botrytis, rating marked with asterisk (*), meaning not given",98* %
COc1cc(F)c(-c2c(C)nn(C)c2Oc2ccc(Br)c(OC)c2)c(F)c1 [compound 212],Test H rating (% disease control),"[2]; wheat leaf rust, curative",0%
same,Test C rating (% disease control),[4]; [10],17%
same,Test G rating (% disease control),[7]; 0 = no control relative to controls,98%
same,Test B rating (% disease control),[6]; [12],0%
Cc1nn(C)c(Nc2c(Cl)cc(F)cc2Cl)c1-c1ccc(F)cc1Br [compound 316],Test F disease control rating,[1]; Septoria glume blotch on wheat,0%
same,Test H disease control rating,[2]; wheat leaf rust,9%
same,Test J disease control rating,[3]; wheat powdery mildew,96%
same,Test C disease control rating,[4]; tomato early blight,0%
same,Test I disease control rating,[5]; wheat leaf rust,99%
same,Test B disease control rating,[6]; tomato Botrytis,99%
"Cc1nn(C)c(C(O)c2ccc(F)cc2F)c1-c1ccc(F)cc1Cl (stereo not drawn) [Compound 351, 4-(2-chloro-4-fluorophenyl)-α-(2,4-difluorophenyl)-1,3-dimethyl-1H-pyrazole-5-methanol]",pest or weed control at 200 µg/mL,[1]; [13],92%
same,pest or weed control at 200 µg/mL,[2]; [14],96%
same,pest or weed control at 200 µg/mL,[3]; [15],99%
same,pest or weed control at 200 µg/mL,[4]; [16],99%
same,pest or weed control at 200 µg/mL,[5]; [17],100%
same,pest or weed control at 200 µg/mL,[6]; [18],100%
Cc1nn(C)c(Nc2c(F)cc(F)cc2Cl)c1-c1ccc(Cl)cc1Cl [compound 391],Test F disease control rating,[1]; Septoria glume blotch on wheat,73%
same,Test H disease control rating,[2]; wheat leaf rust,31%
same,Test J disease control rating,[3]; wheat powdery mildew,99%
same,Test C disease control rating,[4]; tomato early blight,99%
same,Test I disease control rating,[5]; wheat leaf rust,99%
same,Test B disease control rating,[6]; tomato Botrytis,100%
